From ChEMBL document CHEMBL4507279, “Data for DCP probe BI-9627” (2021)

How the values were obtained:
[1] = biological target: Phosphatidylinositol 5-phosphate 4-kinase type-2 beta (Homo sapiens) (UniProt P78356); conditions: Compound concentration 1000.0 nM
[2] = biological target: Sodium-dependent dopamine transporter (Homo sapiens, UniProt Q01959); conditions: Compound concentration 10.0 uM
[3] = biological target: SNF-related serine/threonine-protein kinase (Homo sapiens) (UniProt Q9NRH2); conditions: Compound concentration 1000.0 nM
[4] = biological target: Receptor tyrosine-protein kinase erbB-2 (Homo sapiens) (UniProt P04626); conditions: Compound concentration 1000.0 nM
[5] = biological target: Phosphatidylinositol 5-phosphate 4-kinase type-2 gamma (Homo sapiens) (UniProt Q8TBX8); conditions: Compound concentration 1000.0 nM
[6] = biological target: Interleukin-1 receptor-associated kinase 4 (Homo sapiens) (UniProt Q9NWZ3); conditions: Compound concentration 1000.0 nM
[7] = biological target: Calcium/calmodulin-dependent protein kinase type II subunit delta (Homo sapiens) (UniProt Q13557); conditions: Compound concentration 1000.0 nM
[8] = test system: Proto-oncogene tyrosine-protein kinase receptor Ret (Homo sapiens), P07949 [V804M]; conditions: Compound concentration 1000.0 nM
[9] = biological target: Tyrosine-protein kinase JAK2 (Homo sapiens) (UniProt O60674); conditions: Compound concentration 1000.0 nM
[10] = biological target: Serine/threonine-protein kinase PAK 3 (Homo sapiens) (UniProt O75914); conditions: Compound concentration 1000.0 nM
[11] = biological target: Dual specificity protein kinase TTK (Homo sapiens) (UniProt P33981); conditions: Compound concentration 1000.0 nM
[12] = biological target: Protein-tyrosine kinase 6 (Homo sapiens) (UniProt Q13882); conditions: Compound concentration 1000.0 nM
[13] = biological target: Casein kinase I isoform alpha-like (Homo sapiens) (UniProt Q8N752); conditions: Compound concentration 1000.0 nM
[14] = biological target: Serine/threonine-protein kinase Nek10 (Homo sapiens) (UniProt Q6ZWH5); conditions: Compound concentration 1000.0 nM
[15] = biological target: Dual specificity mitogen-activated protein kinase kinase 3 (Homo sapiens) (UniProt P46734); conditions: Compound concentration 1000.0 nM
[16] = test system: Tyrosine-protein kinase ABL1 (Homo sapiens), P00519 [F317L]; conditions: Compound concentration 1000.0 nM
[17] = biological target: Phosphatidylinositol 4-phosphate 3-kinase C2 domain-containing subunit beta (Homo sapiens) (UniProt O00750); conditions: Compound concentration 1000.0 nM
[18] = test system: Phosphatidylinositol 4,5-bisphosphate 3-kinase catalytic subunit alpha isoform (Homo sapiens), P42336 [E545A]; conditions: Compound concentration 1000.0 nM
[19] = biological target: Epithelial discoidin domain-containing receptor 1 (Homo sapiens) (UniProt Q08345); conditions: Compound concentration 1000.0 nM
[20] = biological target: Ephrin type-A receptor 3 (Homo sapiens) (UniProt P29320); conditions: Compound concentration 1000.0 nM
[21] = biological target: 5-hydroxytryptamine receptor 2B (Homo sapiens) (UniProt P41595); conditions: Compound concentration 10.0 uM
[22] = biological target: Angiopoietin-1 receptor (Homo sapiens) (UniProt Q02763); conditions: Compound concentration 1000.0 nM
[23] = biological target: Tyrosine-protein kinase Mer (Homo sapiens) (UniProt Q12866); conditions: Compound concentration 1000.0 nM
[24] = biological target: Serine/threonine-protein kinase NLK (Homo sapiens) (UniProt Q9UBE8); conditions: Compound concentration 1000.0 nM
[25] = test system: Tyrosine-protein kinase ABL1 (Homo sapiens), P00519 [Q252H]; conditions: Compound concentration 1000.0 nM
[26] = biological target: Cyclin-dependent kinase 9 (Homo sapiens) (UniProt P50750); conditions: Compound concentration 1000.0 nM
[27] = biological target: Serine/threonine-protein kinase Sgk2 (Homo sapiens) (UniProt Q9HBY8); conditions: Compound concentration 1000.0 nM
[28] = biological target: Receptor-interacting serine/threonine-protein kinase 2 (Homo sapiens) (UniProt O43353); conditions: Compound concentration 1000.0 nM
[29] = biological target: Ribosomal protein S6 kinase alpha-6 (Homo sapiens) (UniProt Q9UK32); conditions: Compound concentration 1000.0 nM
[30] = test system: Phosphatidylinositol 4,5-bisphosphate 3-kinase catalytic subunit alpha isoform (Homo sapiens), P42336 [C420R]; conditions: Compound concentration 1000.0 nM
[31] = biological target: Sodium-dependent noradrenaline transporter (Homo sapiens) (UniProt P23975); conditions: Compound concentration 10.0 uM
[32] = biological target: Protein kinase C epsilon type (Homo sapiens) (UniProt Q02156); conditions: Compound concentration 1000.0 nM
[33] = biological target: Casein kinase I isoform delta (Homo sapiens) (UniProt P48730); conditions: Compound concentration 1000.0 nM
[34] = biological target: Rhodopsin kinase GRK7 (Homo sapiens) (UniProt Q8WTQ7); conditions: Compound concentration 1000.0 nM
[35] = biological target: MAP kinase-activated protein kinase 2 (Homo sapiens) (UniProt P49137); conditions: Compound concentration 1000.0 nM
[36] = biological target: Mast/stem cell growth factor receptor Kit (Homo sapiens) (UniProt P10721); conditions: Compound concentration 1000.0 nM
[37] = biological target: cAMP-dependent protein kinase catalytic subunit alpha (Homo sapiens) (UniProt P17612); conditions: Compound concentration 1000.0 nM
[38] = biological target: Serine/threonine-protein kinase pim-1 (Homo sapiens) (UniProt P11309); conditions: Compound concentration 1000.0 nM
[39] = biological target: Dual specificity mitogen-activated protein kinase kinase 5 (Homo sapiens) (UniProt Q13163); conditions: Compound concentration 1000.0 nM
Sequence of Dual specificity mitogen-activated protein kinase kinase 5 (Homo sapiens) (Q13163 whole entry): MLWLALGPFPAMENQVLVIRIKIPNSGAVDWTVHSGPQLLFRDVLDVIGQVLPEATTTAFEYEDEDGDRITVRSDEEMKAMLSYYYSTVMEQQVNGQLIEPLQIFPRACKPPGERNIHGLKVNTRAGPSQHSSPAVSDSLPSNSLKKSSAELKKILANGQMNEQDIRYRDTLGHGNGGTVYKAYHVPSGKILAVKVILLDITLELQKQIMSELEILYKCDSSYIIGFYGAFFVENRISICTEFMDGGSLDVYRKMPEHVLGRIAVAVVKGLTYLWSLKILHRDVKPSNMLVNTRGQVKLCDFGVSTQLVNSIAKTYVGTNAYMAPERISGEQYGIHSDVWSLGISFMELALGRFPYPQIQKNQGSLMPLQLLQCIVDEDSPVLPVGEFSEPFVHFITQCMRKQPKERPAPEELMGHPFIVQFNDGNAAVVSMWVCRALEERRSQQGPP

Sequence of Ephrin type-A receptor 3 (Homo sapiens) (P29320 whole entry): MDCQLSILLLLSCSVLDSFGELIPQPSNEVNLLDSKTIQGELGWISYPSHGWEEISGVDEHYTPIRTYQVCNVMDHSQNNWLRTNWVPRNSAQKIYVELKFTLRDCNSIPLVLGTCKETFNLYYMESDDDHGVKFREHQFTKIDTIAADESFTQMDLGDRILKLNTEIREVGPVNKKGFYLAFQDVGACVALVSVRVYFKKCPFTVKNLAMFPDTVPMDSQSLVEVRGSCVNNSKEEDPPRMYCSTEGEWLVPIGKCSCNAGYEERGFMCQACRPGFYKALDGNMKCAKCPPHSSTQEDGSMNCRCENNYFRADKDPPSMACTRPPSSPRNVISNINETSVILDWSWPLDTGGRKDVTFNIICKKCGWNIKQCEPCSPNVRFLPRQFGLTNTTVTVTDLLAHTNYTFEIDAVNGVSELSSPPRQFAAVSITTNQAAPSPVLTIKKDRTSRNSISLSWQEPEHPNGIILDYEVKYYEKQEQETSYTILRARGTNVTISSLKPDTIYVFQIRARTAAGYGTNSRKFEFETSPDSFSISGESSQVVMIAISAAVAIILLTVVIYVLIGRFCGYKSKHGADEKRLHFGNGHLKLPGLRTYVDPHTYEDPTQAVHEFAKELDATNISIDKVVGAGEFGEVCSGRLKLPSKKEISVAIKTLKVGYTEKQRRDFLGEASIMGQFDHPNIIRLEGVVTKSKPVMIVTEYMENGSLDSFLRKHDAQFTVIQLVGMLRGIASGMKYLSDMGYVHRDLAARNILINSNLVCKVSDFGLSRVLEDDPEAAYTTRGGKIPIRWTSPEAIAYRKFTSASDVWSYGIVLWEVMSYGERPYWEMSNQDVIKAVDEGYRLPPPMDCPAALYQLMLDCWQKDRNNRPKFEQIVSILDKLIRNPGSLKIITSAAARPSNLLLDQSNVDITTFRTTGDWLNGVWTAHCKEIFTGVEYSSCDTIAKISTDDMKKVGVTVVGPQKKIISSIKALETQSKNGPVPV
Sequence of MAP kinase-activated protein kinase 2 (Homo sapiens) (P49137 whole entry, looked up): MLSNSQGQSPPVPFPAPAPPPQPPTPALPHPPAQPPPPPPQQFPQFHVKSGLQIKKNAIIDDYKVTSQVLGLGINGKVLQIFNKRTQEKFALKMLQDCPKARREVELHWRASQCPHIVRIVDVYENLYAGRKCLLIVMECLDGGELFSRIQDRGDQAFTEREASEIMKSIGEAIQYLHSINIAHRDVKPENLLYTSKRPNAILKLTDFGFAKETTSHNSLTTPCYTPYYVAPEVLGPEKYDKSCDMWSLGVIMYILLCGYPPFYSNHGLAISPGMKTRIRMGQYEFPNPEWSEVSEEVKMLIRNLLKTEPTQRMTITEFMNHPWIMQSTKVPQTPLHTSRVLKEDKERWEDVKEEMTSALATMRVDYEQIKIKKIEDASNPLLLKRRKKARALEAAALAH
Sequence of Mast/stem cell growth factor receptor Kit (Homo sapiens) (P10721 whole entry): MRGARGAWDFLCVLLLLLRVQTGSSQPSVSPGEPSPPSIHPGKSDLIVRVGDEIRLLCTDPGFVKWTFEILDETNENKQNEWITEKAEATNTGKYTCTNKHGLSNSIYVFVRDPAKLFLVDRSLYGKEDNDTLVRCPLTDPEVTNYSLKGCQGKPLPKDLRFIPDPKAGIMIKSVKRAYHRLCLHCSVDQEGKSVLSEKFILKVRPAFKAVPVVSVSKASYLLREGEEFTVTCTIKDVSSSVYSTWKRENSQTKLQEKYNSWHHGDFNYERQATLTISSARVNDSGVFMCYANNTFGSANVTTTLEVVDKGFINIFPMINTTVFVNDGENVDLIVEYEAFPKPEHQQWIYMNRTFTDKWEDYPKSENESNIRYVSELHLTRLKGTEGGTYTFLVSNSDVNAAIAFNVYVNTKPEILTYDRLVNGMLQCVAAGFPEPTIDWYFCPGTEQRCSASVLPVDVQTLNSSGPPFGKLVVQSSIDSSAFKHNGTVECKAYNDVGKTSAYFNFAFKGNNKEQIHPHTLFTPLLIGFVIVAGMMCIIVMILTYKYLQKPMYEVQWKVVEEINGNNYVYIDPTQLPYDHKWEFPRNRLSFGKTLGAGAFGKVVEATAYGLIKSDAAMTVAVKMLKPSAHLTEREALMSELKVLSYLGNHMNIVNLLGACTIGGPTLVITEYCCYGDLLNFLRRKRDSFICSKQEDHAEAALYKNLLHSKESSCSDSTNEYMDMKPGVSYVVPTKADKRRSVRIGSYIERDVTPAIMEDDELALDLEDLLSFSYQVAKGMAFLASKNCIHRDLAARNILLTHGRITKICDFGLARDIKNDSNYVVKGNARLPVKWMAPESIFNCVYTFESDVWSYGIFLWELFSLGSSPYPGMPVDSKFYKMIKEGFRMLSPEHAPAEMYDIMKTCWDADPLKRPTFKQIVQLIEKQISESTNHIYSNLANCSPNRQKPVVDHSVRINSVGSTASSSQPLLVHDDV
Sequence of Sodium-dependent noradrenaline transporter (Homo sapiens) (P23975 whole entry): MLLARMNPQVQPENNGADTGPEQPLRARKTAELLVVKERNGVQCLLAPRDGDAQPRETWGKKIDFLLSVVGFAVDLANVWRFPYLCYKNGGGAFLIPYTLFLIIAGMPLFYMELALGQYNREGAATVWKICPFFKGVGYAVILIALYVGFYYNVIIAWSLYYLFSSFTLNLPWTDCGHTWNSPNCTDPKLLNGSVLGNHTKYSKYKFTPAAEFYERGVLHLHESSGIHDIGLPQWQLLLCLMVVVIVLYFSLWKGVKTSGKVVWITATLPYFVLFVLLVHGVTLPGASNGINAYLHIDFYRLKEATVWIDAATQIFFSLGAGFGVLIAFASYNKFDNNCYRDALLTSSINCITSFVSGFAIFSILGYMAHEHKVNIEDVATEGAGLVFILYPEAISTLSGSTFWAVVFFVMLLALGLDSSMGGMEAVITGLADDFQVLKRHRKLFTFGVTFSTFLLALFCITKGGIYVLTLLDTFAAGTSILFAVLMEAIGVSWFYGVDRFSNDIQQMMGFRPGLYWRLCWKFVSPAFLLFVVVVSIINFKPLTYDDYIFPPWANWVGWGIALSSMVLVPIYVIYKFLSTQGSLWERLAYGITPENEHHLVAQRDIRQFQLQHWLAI
Sequence of Protein-tyrosine kinase 6 (Homo sapiens) (Q13882 whole entry, looked up, canonical isoform): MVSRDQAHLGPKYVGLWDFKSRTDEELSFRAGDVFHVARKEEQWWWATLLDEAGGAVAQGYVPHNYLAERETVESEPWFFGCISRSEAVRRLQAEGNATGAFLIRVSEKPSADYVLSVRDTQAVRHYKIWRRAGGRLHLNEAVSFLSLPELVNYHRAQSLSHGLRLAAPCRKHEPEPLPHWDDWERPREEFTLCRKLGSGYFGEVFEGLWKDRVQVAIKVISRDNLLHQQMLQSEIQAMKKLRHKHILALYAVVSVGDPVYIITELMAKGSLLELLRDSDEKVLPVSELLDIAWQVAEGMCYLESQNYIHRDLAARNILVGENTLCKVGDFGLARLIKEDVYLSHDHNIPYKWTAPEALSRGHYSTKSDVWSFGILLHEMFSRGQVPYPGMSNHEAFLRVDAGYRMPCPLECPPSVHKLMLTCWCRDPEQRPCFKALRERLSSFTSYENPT
Sequence of Receptor-interacting serine/threonine-protein kinase 2 (Homo sapiens) (O43353 whole entry): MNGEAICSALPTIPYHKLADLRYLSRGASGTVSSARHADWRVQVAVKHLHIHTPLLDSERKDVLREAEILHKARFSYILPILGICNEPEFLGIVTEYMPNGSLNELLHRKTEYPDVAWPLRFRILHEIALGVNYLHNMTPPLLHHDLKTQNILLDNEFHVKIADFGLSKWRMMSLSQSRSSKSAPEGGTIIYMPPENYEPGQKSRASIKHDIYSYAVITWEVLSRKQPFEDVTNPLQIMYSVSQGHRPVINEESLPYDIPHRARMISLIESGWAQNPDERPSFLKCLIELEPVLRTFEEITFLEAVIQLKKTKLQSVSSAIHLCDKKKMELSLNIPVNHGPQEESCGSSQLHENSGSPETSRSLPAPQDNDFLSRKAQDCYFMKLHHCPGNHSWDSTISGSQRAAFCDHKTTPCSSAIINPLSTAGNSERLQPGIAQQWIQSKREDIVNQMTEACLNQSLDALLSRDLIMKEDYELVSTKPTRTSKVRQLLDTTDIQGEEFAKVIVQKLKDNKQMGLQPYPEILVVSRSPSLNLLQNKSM
Sequence of Interleukin-1 receptor-associated kinase 4 (Homo sapiens) (Q9NWZ3 whole entry): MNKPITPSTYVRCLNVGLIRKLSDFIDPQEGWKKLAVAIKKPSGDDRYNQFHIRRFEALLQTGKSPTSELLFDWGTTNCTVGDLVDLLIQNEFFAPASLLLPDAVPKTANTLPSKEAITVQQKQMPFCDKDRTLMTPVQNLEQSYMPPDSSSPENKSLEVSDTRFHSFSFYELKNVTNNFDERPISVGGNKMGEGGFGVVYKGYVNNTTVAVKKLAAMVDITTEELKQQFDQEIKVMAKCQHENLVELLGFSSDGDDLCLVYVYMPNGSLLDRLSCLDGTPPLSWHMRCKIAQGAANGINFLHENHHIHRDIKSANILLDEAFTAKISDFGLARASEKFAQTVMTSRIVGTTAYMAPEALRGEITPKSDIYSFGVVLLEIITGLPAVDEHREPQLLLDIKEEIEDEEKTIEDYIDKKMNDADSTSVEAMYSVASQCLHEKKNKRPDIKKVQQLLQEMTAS

SMILES	residual activity [1] [%]	inhibition [2] [%]	residual activity [3] [%]	residual activity [4] [%]	residual activity [5] [%]	residual activity [6] [%]	residual activity [7] [%]	residual activity [8] [%]	residual activity [9] [%]	residual activity [10] [%]	residual activity [11] [%]	residual activity [12] [%]	residual activity [13] [%]	residual activity [14] [%]	residual activity [15] [%]	residual activity [16] [%]	residual activity [17] [%]	residual activity [18] [%]	residual activity [19] [%]	residual activity [20] [%]	also measured
CC(=O)N1CCC(c2ccc(C(=O)NC3=NCCN3)cc2C(F)(F)F)CC1 [BI 0054]	75	87.3	98	100	94	89	100	100	100	100	100	88	100	93	87	95	50	100	100	95	inhibition [21]: -2.75%; residual activity [22]: 100%; residual activity [23]: 100%; residual activity [24]: 100%; residual activity [25]: 88%; residual activity [26]: 84%; residual activity [27]: 100%; residual activity [28]: 100%; residual activity [29]: 98%; residual activity [30]: 93%; inhibition [31]: 21.5%; residual activity [32]: 84%; residual activity [33]: 100%; residual activity [34]: 87%; residual activity [35]: 100%; residual activity [36]: 100%; residual activity [37]: 100%; residual activity [38]: 100%; residual activity [39]: 92%
CC(=O)N1CCC(c2ccc(C(=O)NC(=N)N)cc2C(F)(F)F)CC1 [BI 9627]	77	77.9	100	92	100	100	100	100	100	84	100	100	100	92	100	92	95	100	83	100	inhibition [21]: -8.79%; residual activity [22]: 96%; residual activity [23]: 81%; residual activity [24]: 100%; residual activity [25]: 79%; residual activity [26]: 100%; residual activity [27]: 100%; residual activity [28]: 100%; residual activity [29]: 100%; residual activity [30]: 100%; inhibition [31]: 28.6%; residual activity [32]: 100%; residual activity [33]: 100%; residual activity [34]: 97%; residual activity [35]: 100%; residual activity [36]: 95%; residual activity [37]: 100%; residual activity [38]: 100%; residual activity [39]: 86%
